Source: US11807644B2 (PMV Pharmaceuticals, Inc., priority 2020, dated 2023)

Biological target: T1, recombinant His-tag Y220C p53 DBD protein (Homo sapiens, UniProt P04637, Y220C)
T1 construct: recombinant His-tag Y220C p53 DBD protein (amino acids #˜94-312)
Test: In vitro DNA binding activity assay (TR-FRET): binding of His-tag Y220C p53 DBD to biotin-labeled consensus DNA
Assay type: biochemical
Settings: for Y220C SC150 (μM): SC150 = concentration to increase DNA binding by […], His-tag Y220C p53 DBD, biotin-labeled consensus DNA; for SC150 (μM): concentration to increase DNA binding by […], incubated at either 27° C. or 29° C. for 60 min
Protocol: DNA binding activity of the compounds was measured using a TR-FRET (Time-Resolved Fluorescence Resonance Energy Transfer) assay in which recombinant His-tag Y220C p53 DBD protein binds to biotin-labeled consensus DNA. Binding of recombinant His-tag Y220C p53 DBD protein and biotin-labeled consensus DNA was registered by the FRET (fluorescence resonance energy transfer) between allophycocyanin (APC) conjugated anti-His tag antibody and Europium-(Eu) conjugated Streptavidin.
The compounds of TABLES 1-9 (2 mM stock in dimethylsulfoxide) were diluted 3-fold in series in dimethylsulfoxide. 1.2 μL of a compound solution was added to each well of 384-well polypropylene black plates (NUNC). Thirty μL per well of 181 nM recombinant His-tag Y220C p53 DBD protein (amino acids #˜94-312; SEQ ID NO: 1) and 6.1 nM of APC conjugated anti-His tag antibody (Columbia Biosciences) in ice-cold Assay Buffer 1 (50 mM Tris-HCl, pH 7.4, 75 mM KCl, 0.75 mM DTT and 0.2 mg/ml, BSA) were added. As a background control. 30 μL of Assay Buffer 1 containing 6.1 nM of APC anti-His antibody (No Y220C protein) was also added into a second set of serially diluted compound plates. The samples were spun by centrifuge at 1,200 rpm (Eppendorf 5810R Plate centrifuge) for 1 minute and incubated at room temperature (20° C.) for 15 min. The samples were then further incubated at either 27° C. or 29° C. for 60 min. […] The samples were spun by centrifuge at 1,200 rpm for 1 min and incubated at room temperature (20° C.) for 20 min. Assay signals were monitored by reading excitation at 340 nm, and emission fluorescence at 615 nm and 665 nm on an Envision® reader. Normalized TR-FRET (time-resolved fluorescence resonance energy transfer) assay signal (Rn) was calculated by the formula: Rn=[(A−Ba−C×(D−Bd))/(D−Bd)]×(D−Bd) Wherein: • A is the fluorescence intensity of the sample at 665 nm; • D is the fluorescence intensity of the sample at 615 nm; • Ba and Bd are plate backgrounds at 665 nm and 615 nm, respectively; and • Dc is the fluorescence intensity of 0.67 nM Eu-SA in the assay buffer at 615 nm.
The cross-talk factor (C) was determined by the following formula: C=(Ac−Ba)/(Dc−Bd) wherein Ac is the fluorescence intensity of 0.67 nM Europium (Eu) conjugated Streptavidin in the assay buffer at 665 nm.

Y220C SC150 (μM)	SC150 (μM)	SMILES
* (* = 0 μM ≤ SC150 < 0.1 μM)		CN1CC[C@@H](Nc2cccc3c2cc(-c2noc(CNC(=O)[C@@H]4C[C@@H]4C#N)n2)n3CC(F)(F)F)[C@@H](F)C1 (mixture of isomers) [Compound 195B, (1RS,2SR)-2-cyano-N-{[3-(4-{[(3S,4R)-3-fluoro-1-methylpiperidin-4-yl]amino}-1-(2,2,2-trifluoroethyl)-1H-indol-2-yl)-1,2,4-oxadiazol-5-yl]methyl}cyclopropane-1-carboxamide]
** (** = 0.1 μM ≤ SC150 < 0.5 μM)		COc1cc(S(C)(=O)=O)ccc1NCc1nnc(-c2cc3c(N[C@H]4CCN(C)C[C@H]4F)cccc3n2CC(F)(F)F)s1 (racemic) [Compound 27B, (+/−)-N-[(3R,4S)-3-fluoro-1-methylpiperidin-4-yl]-2-(5-{[(4-methanesulfonyl-2-methoxyphenyl)amino]methyl}-1,3,4-thiadiazol-2-yl)-1-(2,2,2-trifluoroethyl)-1H-indol-4-amine]
* (* = 0 μM ≤ SC150 < 0.1 μM)		COc1cc(S(C)(=O)=O)ccc1NCc1nnc(-c2cc3c(N[C@H]4CCN(C)C[C@@H]4F)cccc3n2CC(F)(F)F)s1 (racemic) [Compound 28B, (+/−)-N-[(3R,4R)-3-fluoro-1-methylpiperidin-4-yl]-2-(5-{[(4-methanesulfonyl-2-methoxyphenyl)amino]methyl}-1,3,4-thiadiazol-2-yl)-1-(2,2,2-trifluoroethyl)-1H-indol-4-amine]
** (** = 0.1 μM ≤ SC150 < 0.5 μM)		CN1CC[C@H](Nc2cccc3c2cc(-c2nnc(CNC(=O)C4CCCC4)s2)n3CC(F)(F)F)[C@H](F)C1 (racemic) [Compound 29B, (+/−)-N-{[5-(4-{[(3R,4S)-3-fluoro-1-methylpiperidin-4-yl]amino}-1-(2,2,2-trifluoroethyl)-1H-indol-2-yl)-1,3,4-thiadiazol-2-yl]methyl}cyclopentanecarboxamide]
* (* = 0 μM ≤ SC150 < 0.1 μM)		CN1CC[C@H](Nc2cccc3c2cc(-c2nnc(CNC(=O)c4cccs4)s2)n3CC(F)(F)F)[C@H](F)C1 (racemic) [Compound 30B, (+/−)-N-{[5-(4-{[(3R,4S)-3-fluoro-1-methylpiperidin-4-yl]amino}-1-(2,2,2-trifluoroethyl)-1H-indol-2-yl)-1,3,4-thiadiazol-2-yl]methyl}thiophene-2-carboxamide]
** (** = 0.1 μM ≤ SC150 < 0.5 μM)		CN1CCC(Nc2cccc3c2cc(-c2nnc(CNC(=O)C4CC4(F)F)s2)n3CC(F)(F)F)CC1 (racemic) [Compound 32B, (+/−)-2,2-difluoro-N-[(5-{4-[(1-methylpiperidin-4-yl)amino]-1-(2,2,2-trifluoroethyl)-1H-indol-2-yl}-1,3,4-thiadiazol-2-yl)methyl]cyclopropane-1-carboxamide]
** (** = 0.1 μM ≤ SC150 < 0.5 μM)		C[C@H]1C[C@H]1C(=O)NCc1nnc(-c2cc3c(NC4CCN(C)CC4)cccc3n2CC(F)(F)F)s1 (racemic) [Compound 33B, (+/−)-(1R,2S)-2-methyl-N-[(5-{4-[(1-methylpiperidin-4-yl)amino]-1-(2,2,2-trifluoroethyl)-1H-indol-2-yl}-1,3,4-thiadiazol-2-yl)methyl]cyclopropane-1-carboxamide]
* (* = 0 μM ≤ SC150 < 0.1 μM)		C[C@@H]1C[C@H]1C(=O)NCc1nnc(-c2cc3c(NC4CCN(C)CC4)cccc3n2CC(F)(F)F)s1 (racemic) [Compound 34B, (+/−)-(1R,2R)-2-methyl-N-[(5-{4-[(1-methylpiperidin-4-yl)amino]-1-(2,2,2-trifluoroethyl)-1H-indol-2-yl}-1,3,4-thiadiazol-2-yl)methyl]cyclopropane-1-carboxamide]
** (** = 0.1 μM ≤ SC150 < 0.5 μM)		CN1CC[C@@H](Nc2cccc3c2cc(-c2nnc(CNC(=O)C4COC4)s2)n3CC(F)(F)F)[C@@H](F)C1 (racemic) [Compound 36B, (+/−)-N-{[5-(4-{[(3R,4S)-3-fluoro-1-methylpiperidin-4-yl]amino}-1-(2,2,2-trifluoroethyl)-1H-indol-2-yl)-1,3,4-thiadiazol-2-yl]methyl}oxetane-3-carboxamide]
** (** = 0.1 μM ≤ SC150 < 0.5 μM)		CN1CC[C@@H](Nc2cccc3c2cc(-c2nnc(CNC(=O)C4CCC4)s2)n3CC(F)(F)F)[C@@H](F)C1 (racemic) [Compound 37B, (+/−)-N-{[5-(4-{[(3R,4S)-3-fluoro-1-methylpiperidin-4-yl]amino}-1-(2,2,2-trifluoroethyl)-1H-indol-2-yl)-1,3,4-thiadiazol-2-yl]methyl}cyclobutanecarboxamide]
* (* = 0 μM ≤ SC150 < 0.1 μM)		COC(=O)NCc1nnc(-c2cc3c(N[C@@H]4CCN(C)C[C@@H]4F)cccc3n2CC(F)(F)F)s1 (racemic) [Compound 38B, (+/−)-methyl N-{[5-(4-{[(3R,4S)-3-fluoro-1-methylpiperidin-4-yl]amino}-1-(2,2,2-trifluoroethyl)-1H-indol-2-yl)-1,3,4-thiadiazol-2-yl]methyl}carbamate]
*** (*** = 0.5 μM ≤ SC150 < 1 μM)		CN1CCC(C(=O)NCc2nnc(-c3cc4c(N[C@@H]5CCN(C)C[C@@H]5F)cccc4n3CC(F)(F)F)s2)CC1 (racemic) [Compound 40B, (+/−)-N-{[5-(4-{[(3R,4S)-3-fluoro-1-methylpiperidin-4-yl]amino}-1-(2,2,2-trifluoroethyl)-1H-indol-2-yl)-1,3,4-thiadiazol-2-yl]methyl}-1-methylpiperidine-4-carboxamide]
	++++ (++++ = 10 μM ≤ SC150 < 35 μM)	CN1CC[C@H](Nc2cccc3c2cc(-c2ccc(CNC4CC4)cc2)n3CC(F)(F)F)[C@H](F)C1 (racemic) [Compound 42A, (+/−)-2-{4-[(cyclopropylamino)methyl]phenyl}-N-[(3R,4S)-3-fluoro-1-methylpiperidin-4-yl]-1-(2,2,2-trifluoroethyl)-1H-indol-4-amine]
	+ (+ = 0 μM ≤ SC150 < 2 μM)	COc1cc(S(C)(=O)=O)ccc1NCc1ccc(-c2cc3c(N[C@H]4CCN(C)C[C@H]4F)cccc3n2CC(F)(F)F)cc1 (racemic) [Compound 43A, (+/−)-N-[(3R,4S)-3-fluoro-1-methylpiperidin-4-yl]-2-(4-{[(4-methanesulfonyl-2-methoxyphenyl)amino]methyl}phenyl)-1-(2,2,2-trifluoroethyl)-1H-indol-4-amine]
**** (**** = 1 μM ≤ SC150 < 10 μM)		CNCc1nnc(-c2cc3c(N[C@@H]4CCN(C)C[C@@H]4F)cccc3n2CC(F)(F)F)s1 (racemic) [Compound 43B, (+/−)-N-[(3R,4S)-3-fluoro-1-methylpiperidin-4-yl]-2-{5-[(methylamino)methyl]-1,3,4-thiadiazol-2-yl}-1-(2,2,2-trifluoroethyl)-1H-indol-4-amine]
* (* = 0 μM ≤ SC150 < 0.1 μM)		CN1CC[C@@H](Nc2cccc3c2cc(-c2nnc(CNC(=O)OCc4ccccc4)s2)n3CC(F)(F)F)[C@@H](F)C1 (racemic) [Compound 44B, (+/−)-benzyl N-{[5-(4-{[(3R,4S)-3-fluoro-1-methylpiperidin-4-yl]amino}-1-(2,2,2-trifluoroethyl)-1H-indol-2-yl)-1,3,4-thiadiazol-2-yl]methyl}carbamate]
	+ (+ = 0 μM ≤ SC150 < 2 μM)	CN1CC[C@H](Nc2cccc3c2cc(-c2ccc(CNC(=O)c4ccccc4)cc2)n3CC(F)(F)F)[C@H](F)C1 (racemic) [Compound 45A, (+/−)-N-{[4-(4-{[(3R,4S)-3-fluoro-1-methylpiperidin-4-yl]amino}-1-(2,2,2-trifluoroethyl)-1H-indol-2-yl)phenyl]methyl}benzamide]
	+ (+ = 0 μM ≤ SC150 < 2 μM)	CN1CC[C@H](Nc2cccc3c2cc(-c2ccc(CNC(=O)C4CC4)cc2)n3CC(F)(F)F)[C@H](F)C1 (racemic) [Compound 46A, (+/−)-N-{[4-(4-{[(3R,4S)-3-fluoro-1-methylpiperidin-4-yl]amino}-1-(2,2,2-trifluoroethyl)-1H-indol-2-yl)phenyl]methyl}cyclopropanecarboxamide]
* (* = 0 μM ≤ SC150 < 0.1 μM)		CN1CCC(Nc2cccc3c2cc(-c2nnc(CNC(=O)[C@H]4C[C@@H]4c4ccccc4)s2)n3CC(F)(F)F)CC1 (racemic) [Compound 53B, (+/−)-(1S,2S)-N-[(5-{4-[(1-methylpiperidin-4-yl)amino]-1-(2,2,2-trifluoroethyl)-1H-indol-2-yl}-1,3,4-thiadiazol-2-yl)methyl]-2-phenylcyclopropane-1-carboxamide]
